According to US11866450B2, “Modulators of Cystic Fibrosis Transmembrane Conductance regulator, pharmaceutical compositions, methods of treatment, and process for making the modulators” (priority 2018, dated 2024):

Target: CFTR-mediated chloride transport (Homo sapiens, UniProt P13569)
Assay type: cell-based
Details: enteroid cells incubated with test compound 18-24 hours, acute 10 μM forskolin and 300 nM Compound III; for Max. Activity: % of chloride transport with 3 μM Compound A, 3 μM Compound II and 300 nM acute Compound III triple combination control
Description: Base medium (ADF+++) consisted of Advanced DMEM/Ham's F12, 2 mM Glutamax, 10 mM HEPES, […] penicillin/streptomycin.
Intestinal enteroid maintenance medium (IEMM) consisted of ADF+++, 1× B27 supplement, 1× N2 supplement, 1.25 mM N-acetyl cysteine, 10 mM Nicotinamide, 50 ng/mL hEGF, 10 nM Gastrin, 1 μg/mL hR-spondin-1, 100 ng/mL hNoggin, TGF-b type 1 inhibitor A-83-01, 100 μg/mL Primocin, 10 μM P38 MAPK inhibitor SB202190.
Bath 1 Buffer consisted of 1 mM MgCl2, 160 mM NaCl, 4.5 mM KCl, 10 mM HEPES, 10 mM Glucose, 2 mM CaCl2).
Chloride Free Buffer consisted of 1 mM Magnesium Gluconate, 2 mM Calcium Gluconate, 4.5 mM Potassium Gluconate, 160 mM Sodium Gluconate, 10 mM HEPES, 10 mM Glucose.
Bath1 Dye Solution consisted of Bath 1 Buffer, 0.04% Pluronic F127, 20 μM Methyl Oxonol, 30 μM CaCCinh-A01, 30 μM Chicago Sky Blue.
Chloride Free Dye Solution consisted of Chloride Free Buffer, 0.04% Pluronic F127, 20 μM Methyl Oxonol, 30 μM CaCCinh-A01, 30 μM Chicago Sky Blue.
Chloride Free Dye Stimulation Solution consisted of Chloride Free Dye Solution, 10 μM forskolin, 100 μM IBMX, and 300 nM Compound III.
Human intestinal epithelial enteroid cells were obtained from the Hubrecht Institute for Developmental Biology and Stem Cell Research, Utrecht, The Netherlands and expanded in T-Flasks as previously described (Dekkers J F, Wiegerinck C L, de Jonge H R, Bronsveld I, Janssens H M, de Winter-de Groot K M, Brandsma A M, de Jong N W M, Bijvelds M J C, Scholte B J, Nieuwenhuis E E S, van den Brink S, Clevers H, van der Ent C K, Middendorp S and M Beekman J M. A functional CFTR assay using primary cystic fibrosis intestinal organoids. Nat Med. 2013 July; 19(7):939-45).
Cells were recovered in cell recovery solution, collected by centrifugation at 650 rpm for 5 min at 4° C., resuspended in TryPLE and incubated for 5 min at 37° C. Cells were then collected by centrifugation at 650 rpm for 5 min at 4° C. and resuspended in IEMM containing 10 μM ROCK inhibitor (RI) (trans-4-[(1R)-1-aminoethyl]-N-4-pyridinylcyclohexanecarboxamide). The cell suspension was passed through a 40 μm cell strainer and resuspended at 1×10^6 cells/mL in IEMM containing 10 μM RI. Cells were seeded at 5000 cells/well into multi-well plates and incubated for overnight at 37° C., 95% humidity and 5% CO2 prior to assay.
Enteroid cells were incubated with test compound in IEMM for 18-24 hours at 37° C., 95% humidity and 5% CO2. Following compound incubations, a membrane potential dye assay was employed using a FLIPR Tetra to directly measure the potency and efficacy of the test compound on CFTR-mediated chloride transport following acute addition of 10 μM forskolin and 300 nM Compound III. Briefly, cells were washed 5 times in Bath 1 Buffer. Bath 1 Dye Solution was added and the cells were incubated for 25 min at room temperature. Following dye incubation, cells were washed 3 times in Chloride Free Dye Solution. Chloride transport was initiated by addition of Chloride Free Dye Stimulation Solution and the fluorescence signal was read for 15 min. The CFTR-mediated chloride transport for each condition was determined from the AUC of the fluorescence response to acute forskolin and 300 nM Compound III stimulation. Chloride transport was then expressed as a percentage of the chloride transport following treatment with 3 μM Compound A, 3 μM Compound II and 300 nM acute Compound III triple combination control (% Activity).

Chain of CFTR-mediated chloride transport (P13569 whole entry, looked up): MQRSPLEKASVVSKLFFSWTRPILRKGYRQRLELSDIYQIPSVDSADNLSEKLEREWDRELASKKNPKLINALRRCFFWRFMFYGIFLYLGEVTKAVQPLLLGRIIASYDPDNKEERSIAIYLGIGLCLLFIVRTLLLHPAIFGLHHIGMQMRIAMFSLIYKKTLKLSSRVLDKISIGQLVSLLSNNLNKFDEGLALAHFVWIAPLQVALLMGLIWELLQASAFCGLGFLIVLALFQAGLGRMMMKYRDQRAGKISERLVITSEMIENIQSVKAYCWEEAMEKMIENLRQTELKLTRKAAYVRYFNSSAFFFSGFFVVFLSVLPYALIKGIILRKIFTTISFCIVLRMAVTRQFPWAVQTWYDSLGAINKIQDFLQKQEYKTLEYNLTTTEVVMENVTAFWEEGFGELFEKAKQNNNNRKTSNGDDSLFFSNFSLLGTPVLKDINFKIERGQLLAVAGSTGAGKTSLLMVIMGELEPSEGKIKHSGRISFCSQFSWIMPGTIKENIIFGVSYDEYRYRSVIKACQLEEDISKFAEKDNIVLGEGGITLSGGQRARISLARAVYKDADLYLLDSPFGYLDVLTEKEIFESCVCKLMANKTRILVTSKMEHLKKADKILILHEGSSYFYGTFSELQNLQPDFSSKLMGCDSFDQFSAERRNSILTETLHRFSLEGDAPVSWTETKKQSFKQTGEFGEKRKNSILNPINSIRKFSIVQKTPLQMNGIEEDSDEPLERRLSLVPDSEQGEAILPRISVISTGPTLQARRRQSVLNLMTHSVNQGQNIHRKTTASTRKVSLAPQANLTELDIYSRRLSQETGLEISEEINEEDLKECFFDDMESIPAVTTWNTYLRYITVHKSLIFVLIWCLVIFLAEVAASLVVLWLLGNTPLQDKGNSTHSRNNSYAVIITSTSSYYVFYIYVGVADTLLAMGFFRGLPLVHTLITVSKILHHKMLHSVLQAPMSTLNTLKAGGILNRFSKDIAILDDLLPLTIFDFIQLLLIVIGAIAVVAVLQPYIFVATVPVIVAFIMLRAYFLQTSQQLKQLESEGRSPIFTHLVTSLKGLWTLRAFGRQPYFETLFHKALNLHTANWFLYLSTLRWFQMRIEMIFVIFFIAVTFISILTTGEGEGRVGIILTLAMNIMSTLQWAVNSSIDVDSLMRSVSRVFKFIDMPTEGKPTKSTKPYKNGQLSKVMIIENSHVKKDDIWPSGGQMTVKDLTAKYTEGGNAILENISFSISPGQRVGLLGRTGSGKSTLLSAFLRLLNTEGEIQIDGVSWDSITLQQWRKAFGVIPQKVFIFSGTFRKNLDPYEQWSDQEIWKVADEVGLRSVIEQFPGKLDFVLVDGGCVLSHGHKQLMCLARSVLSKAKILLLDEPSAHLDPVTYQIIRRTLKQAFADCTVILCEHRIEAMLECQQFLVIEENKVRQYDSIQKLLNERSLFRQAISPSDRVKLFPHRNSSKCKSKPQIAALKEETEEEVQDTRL

Question: What does the source list for `CC1(C)CC2CCCNc3cccc(n3)S(=N)(=O)NC(=O)c3ccc(-n4ccc(OCCC5(C(F)(F)F)CC5)n4)nc3N1C2` (stereo not shown) [Compound 262, 2-imino-12,12-dimethyl-8-(3-{2-[1-(trifluoromethyl)cyclopropyl]ethoxy}-1H-pyrazol-1-yl)-2λ^6-thia-3,9,11,18,23-pentaazatetracyclo[17.3.1.111,14.05,10]tetracosa-1(23),5,7,9,19,21-hexaene-2,4-dione]?
Answer: EC50: < 1000 nM; Max. Activity: +++ (+++ is >60%)

Question: How did the EC50 turn out when `CC1(C)C[C@@H]2CCCNc3cccc(n3)S(=O)(=O)NC(=O)c3ccc(N4CC[C@H](OCCCC5(C(F)(F)F)CC5)C4=O)nc3N1C2` (single isomer, unassigned) [Compound 242] was run?
Answer: < 1000 nM

Question: What about the “Max. Activity” value of the same molecule?
Answer: ++ (++ is 30-60%)

Question: `CC1(C)C[C@H]2CCCCc3cccc(c3)S(=O)(=O)NC(=O)c3ccc(-n4ccc(OCCC5(C(F)(F)F)CC5)n4)nc3N1C2` (single isomer, unassigned) [Compound 56, 12,12-dimethyl-8-(3-{2-[1-(trifluoromethyl)cyclopropyl]ethoxy}-1H-pyrazol-1-yl)-2λ^6-thia-3,9,11-triazatetracyclo[17.3.1.111,14.05,10]tetracosa-1(22),5,7,9,19(23),20-hexaene-2,2,4-trione] was tested. Which EC50 did it give?
Answer: < 1000 nM

Question: What about the “Max. Activity” value of the same molecule?
Answer: + (+ is <30%)

Question: `CC(C)(C)CCC1C(=O)N(c2ccc3c(n2)N2C[C@@H](CCCNc4cccc(n4)S(=O)(=O)NC3=O)CC2(C)C)CC1(C)C` (stereo partly drawn) [Compound 98, (14S)-8-[3-(3,3-Dimethylbutyl)-4,4-dimethyl-2-oxopyrrolidin-1-yl]-12,12-dimethyl-2λ^6-thia-3,9,11,18,23-pentaazatetracyclo[17.3.1.111,14.05,10]tetracosa-1(22),5,7,9,19(23),20-hexaene-2,2,4-trione] was tested. Which EC50 did it give?
Answer: < 1000 nM

Question: What about the “Max. Activity” value of the same molecule?
Answer: ++ (++ is 30-60%)

Question: How did the EC50 turn out when `CN1CCC[C@H]2CN(c3nc(-n4ccc(OCCC(C5CC5)C5CC5)n4)ccc3C(=O)NS(=O)(=O)c3cccc1n3)C(C)(C)C2` (single isomer, unassigned) [Compound 204, 8-[3-(3,3-dicyclopropylpropoxy)-1H-pyrazol-1-yl]-12,12,18-trimethyl-2λ^6-thia-3,9,11,18,23-pentaazatetracyclo[17.3.1.111,14.05,10]tetracosa-1(22),5,7,9,19(23),20-hexaene-2,2,4-trione] was run?
Answer: > 3000 nM

Question: What about the “Max. Activity” value of the same molecule?
Answer: + (+ is <30%)

Question: How did the EC50 turn out when `CC1(C)C[C@H]2CCCCCNc3cccc(n3)S(=O)(=O)NC(=O)c3ccc(-n4ccc(OCCC5(C(F)(F)F)CC5)n4)nc3N1C2` (single isomer, unassigned) [Compound 64, 12,12-dimethyl-8-(3-{2-[1-(trifluoromethyl)cyclopropyl]ethoxy}-1H-pyrazol-1-yl)-2λ^6-thia-3,9,11,20,25-pentaazatetracyclo[19.3.1.111,14.05,10]hexacosa-1(24),5,7,9,21(25),22-hexaene-2,2,4-trione] was run?
Answer: < 1000 nM

Question: What about the “Max. Activity” value of the same molecule?
Answer: ++ (++ is 30-60%)

Question: `CC1(C)C[C@H]2CCCCOc3ccc(cn3)S(=O)(=O)NC(=O)c3ccc(-n4ccc(OCCC5(C(F)(F)F)CC5)n4)nc3N1C2` (single isomer, unassigned) [Compound 104, 12,12-dimethyl-8-(3-{2-[1-(trifluoromethyl)cyclopropyl]ethoxy}-1H-pyrazol-1-yl)-19-oxa-2λ^6-thia-3,9,11,21-tetraazatetracyclo[18.2.2.111,14.05,10]pentacosa-1(23),5,7,9,20(24),21-hexaene-2,2,4-trione] was tested. Which EC50 did it give?
Answer: > 3000 nM

Question: What about the “Max. Activity” value of the same molecule?
Answer: + (+ is <30%)

Question: `CC1(C)CC[C@H]2CCNc3cccc(n3)S(=O)(=O)NC(=O)c3ccc(-n4ccc(OCCC5(C(F)(F)F)CC5)n4)nc3N21` (single isomer, unassigned) [Compound 116, 8,8-Dimethyl-12-(3-{2-[1-(trifluoromethyl)cyclopropyl]ethoxy}-1H-pyrazol-1-yl)-18λ^6-thia-2,9,11,17,23-pentaazatetracyclo[17.3.1.05,9.010,15]tricosa-1(23),10(15),11,13,19,21-hexaene-16,18,18-trione] was tested. Which EC50 did it give?
Answer: < 1000 nM

Question: And the “Max. Activity” value?
Answer: ++ (++ is 30-60%)

Question: With `CC1(C)C[C@H]2CCNc3cccc(n3)S(=O)(=O)NC(=O)c3ccc(-n4ccc(OCC5(C(F)(F)F)CC5)n4)nc3N1C2` (single isomer, unassigned) [Compound 6, 7,7-dimethyl-11-(3-{[1-(trifluoromethyl)cyclopropyl]methoxy}-1H-pyrazol-1-yl)-17λ^6-thia-2,8,10,16,22-pentaazatetracyclo[16.3.1.1(5,8).0(9,14)]tricosa-1(21),9(14),10,12,18(22),19-hexaene-15,17,17-trione] as the molecule, how does the EC50 read?
Answer: < 1000 nM

Question: What about the “Max. Activity” value of the same molecule?
Answer: +++ (+++ is >60%)

Question: With `CC1(C)C[C@H]2C[C@@H](F)CNc3cccc(n3)S(=O)(=O)NC(=O)c3ccc(-n4ccc(OCCC5C6(CC6)C56CC6)n4)nc3N1C2` (single isomer, unassigned) [Compound 308, 8-[3-(2-{dispiro[2.0.2.1]heptan-7-yl}ethoxy)-1H-pyrazol-1-yl]-16-fluoro-12,12-dimethyl-2λ^6-thia-3,9,11,18,23-pentaazatetracyclo[17.3.1.111,14.05,10]tetracosa-1(22),5,7,9,19(23),20-hexaene-2,2,4-trione] as the molecule, how does the EC50 read?
Answer: < 1000 nM

Question: And the “Max. Activity” value?
Answer: + (+ is <30%)

Question: Which results are given for `C[C@@H]1CC[C@H]2CN(c3nc(-n4ccc(OCCC5(C(F)(F)F)CC5)n4)ccc3C(=O)NS(=O)(=O)c3cccc(n3)N1)C(C)(C)C2` (single isomer, unassigned) [Compound 59, 12,12,17-trimethyl-8-(3-{2-[1-(trifluoromethyl)cyclopropyl]ethoxy}-1H-pyrazol-1-yl)-2λ^6-thia-3,9,11,18,23-pentaazatetracyclo[17.3.1.111,14.05,10]tetracosa-1(23),5(10),6,8,19,21-hexaene-2,2,4-trione]?
Answer: EC50: < 1000 nM; Max. Activity: +++ (+++ is >60%)

Question: For `CC1(C)C[C@H]2CCNc3cccc(n3)S(=O)(=O)NC(=O)c3ccc(-n4ccc(OCC5(C(F)(F)F)CC5)n4)nc3N1C2` (single isomer, unassigned) [Compound 5, 7,7-dimethyl-11-(3-{[1-(trifluoromethyl)cyclopropyl]methoxy}-1H-pyrazol-1-yl)-17λ^6-thia-2,8,10,16,22-pentaazatetracyclo[16.3.1.1(5,8).0(9,14)]tricosa-1(21),9(14),10,12,18(22),19-hexaene-15,17,17-trione], which EC50 is on record?
Answer: < 1000 nM

Question: And the “Max. Activity” value?
Answer: +++ (+++ is >60%)

Question: `CC1(C)C[C@@H]2CN1c1nc(-n3ccc(OCCC4C5(CC5)C45CC5)n3)ccc1C(=O)NS(=O)(=O)c1cccc(n1)NCCO2` (single isomer, unassigned) [Compound 196, 8-[3-(2-{dispiro[2.0.2.1]heptan-7-yl}ethoxy)-1H-pyrazol-1-yl]-12,12-dimethyl-15-oxa-2λ^6-thia-3,9,11,18,23-pentaazatetracyclo[17.3.1.111,14.05,10]tetracosa-1(23),5(10),6,8,19,21-hexaene-2,2,4-trione] was tested. Which EC50 did it give?
Answer: 1000 to 3000 nM

Question: And the “Max. Activity” value?
Answer: ++ (++ is 30-60%)

Question: For `CC1(C)C[C@H]2CCCCNc3ccc(cn3)S(=O)(=O)NC(=O)c3ccc(-n4ccc(OCCC5(C(F)(F)F)CC5)n4)nc3N1C2` (single isomer, unassigned) [Compound 68, 12,12-dimethyl-8-(3-{2-[1-(trifluoromethyl)cyclopropyl]ethoxy}-1H-pyrazol-1-yl)-2λ^6-thia-3,9,11,19,21-pentaazatetracyclo[18.2.2.111,14.05,10]pentacosa-1(23),5,7,9,20(24),21-hexaene-2,2,4-trione], which EC50 is on record?
Answer: < 1000 nM

Question: And the “Max. Activity” value?
Answer: ++ (++ is 30-60%)
